Data from ChEMBL document CHEMBL5370558, “Modifications of geldanamycin via CuAAC altering affinity to chaperone protein Hsp90 and cytotoxicity” (Eur J Med Chem, 2023).
pIC50: −log10 of the molar value.

Legend:
SK-OV-3 = test: Anticancer activity against human SK-OV-3 cells assessed as cell growth inhibition incubated for 72 hrs by SRB assay; type: functional, cell-based
[1] = Selectivity index, ratio of IC50 for cytotoxicity against human HDF cells to IC50 for anticancer activity against human SK-OV-3 cells; type: cell-based; conditions: HDF cells versus SK-OV-3 cells, read-out: Ratio IC50
PC-3 = test: Anticancer activity against human PC-3 cells assessed as cell growth inhibition incubated for 72 hrs by SRB assay; type: functional, cell-based
[2] = Selectivity index, ratio of IC50 for cytotoxicity against human HDF cells to IC50 for anticancer activity against human PC-3 cells; type: toxicity, cell-based; conditions: HDF cells versus PC-3 cells, read-out: Ratio IC50
SK-BR-3 = test: Anticancer activity against human SK-BR-3 cells assessed as cell growth inhibition incubated for 72 hrs by SRB assay; type: functional, cell-based
[3] = Cytotoxicity against human HDF cells assessed as cell growth inhibition incubated for 72 hrs by SRB assay; type: toxicity, cell-based; conditions: HDF cells (normal human dermal fibroblasts, NHDF)
[4] = Selectivity index, ratio of IC50 for cytotoxicity against human HDF cells to IC50 for anticancer activity against human SK-BR-3 cells; type: toxicity, cell-based; conditions: HDF cells versus SK-BR-3 cells, read-out: Ratio IC50

Structure (SMILES) | pIC50 (SK-OV-3; Homo sapiens, SK-OV-3, 72 h) | selectivity ratio [1] | pIC50 (PC-3; Homo sapiens, PC-3, 72 h) | selectivity ratio [2] | pIC50 (SK-BR-3; Homo sapiens, SK-BR-3, 72 h) | IC50 at 72 h [3] [nM] | selectivity ratio [4] | pIC50 (SK-OV-3; sk-ov-3) | pIC50 (PC-3; pc-3) | pIC50 (SK-BR-3; sk-br-3)
CO[C@H]1/C=C\C=C(/C)C(=O)NC2=CC(=O)C(NCc3cn([C@@H]4O[C@H](CO)[C@@H](O)[C@H](O)[C@H]4O)nn3)=C(C[C@@H](C)C[C@H](OC)[C@H](O)[C@@H](C)/C=C(\C)[C@@H]1OC(N)=O)C2=O | 6.27 | 1.87 | 6.22 | 1.68 | 6.13 | 1010 | 1.36 |  |  | 
CO[C@H]1/C=C\C=C(/C)C(=O)NC2=CC(=O)C(NCc3cn(Cc4ccc(C)cc4)nn3)=C(C[C@@H](C)C[C@H](OC)[C@H](O)[C@@H](C)/C=C(\C)[C@@H]1OC(N)=O)C2=O | 6.09 | 1.43 | 6.07 | 1.38 | 6.00 | 1170 | 1.18 |  |  | 
COC1=C2C[C@@H](C)C[C@H](OC)[C@H](O)[C@@H](C)/C=C(\C)[C@H](OC(N)=O)[C@@H](OC)/C=C\C=C(/C)C(=O)NC(=CC1=O)C2=O [GELDANAMYCIN] |  |  |  |  |  | 1050 |  | 6.19 | 6.22 | 6.24
CO[C@H]1/C=C\C=C(/C)C(=O)NC2=CC(=O)C(NCc3cn(Cc4ccccc4I)nn3)=C(C[C@@H](C)C[C@H](OC)[C@H](O)[C@@H](C)/C=C(\C)[C@@H]1OC(N)=O)C2=O | 6.41 | 2.49 | 6.39 | 2.37 | 6.42 | 970 | 2.55 |  |  | 
CO[C@H]1/C=C\C=C(/C)C(=O)NC2=CC(=O)C(NCCN=[N+]=[N-])=C(C[C@@H](C)C[C@H](OC)[C@H](O)[C@@H](C)/C=C(\C)[C@@H]1OC(N)=O)C2=O | 6.02 | 2.17 | 6.04 | 2.26 | 6.03 | 2060 | 2.19 |  |  | 
CO[C@H]1/C=C\C=C(/C)C(=O)NC2=CC(=O)C(NCc3cn(CC4CCCCC4)nn3)=C(C[C@@H](C)C[C@H](OC)[C@H](O)[C@@H](C)/C=C(\C)[C@@H]1OC(N)=O)C2=O | 5.85 | 1.48 | 5.86 | 1.53 | 5.86 | 2090 | 1.53 |  |  | 
CO[C@H]1/C=C\C=C(/C)C(=O)NC2=CC(=O)C(NCc3cn(Cc4ccccc4)nn3)=C(C[C@@H](C)C[C@H](OC)[C@H](O)[C@@H](C)/C=C(\C)[C@@H]1OC(N)=O)C2=O | 6.20 | 2.03 | 6.28 | 2.46 | 6.30 | 1280 | 2.56 |  |  | 
CO[C@H]1/C=C\C=C(/C)C(=O)NC2=CC(=O)C(NCc3cn([C@@H]4O[C@H](COC(C)=O)[C@H](OC(C)=O)[C@H](OC(C)=O)[C@H]4OC(C)=O)nn3)=C(C[C@@H](C)C[C@H](OC)[C@H](O)[C@@H](C)/C=C(\C)[C@@H]1OC(N)=O)C2=O | 6.11 | 1.24 | 6.04 | 1.07 | 6.11 | 970 | 1.29 |  |  | 
CO[C@H]1/C=C\C=C(/C)C(=O)NC2=CC(=O)C(NCCn3cc(-c4ccccn4)nn3)=C(C[C@@H](C)C[C@H](OC)[C@H](O)[C@@H](C)/C=C(\C)[C@@H]1OC(N)=O)C2=O | 5.89 | 1.85 | 5.92 | 1.99 | 5.94 | 2410 | 2.08 |  |  | 
CO[C@H]1/C=C\C=C(/C)C(=O)NC2=CC(=O)C(NCc3cn(C4CCCCCC4)nn3)=C(C[C@@H](C)C[C@H](OC)[C@H](O)[C@@H](C)/C=C(\C)[C@@H]1OC(N)=O)C2=O | 5.95 | 1.52 | 5.98 | 1.62 | 5.99 | 1700 | 1.65 |  |  | 
CO[C@H]1/C=C\C=C(/C)C(=O)NC2=CC(=O)C(NCc3cn([C@@H]4O[C@H](CO)[C@H](O)[C@H](O)[C@H]4O)nn3)=C(C[C@@H](C)C[C@H](OC)[C@H](O)[C@@H](C)/C=C(\C)[C@@H]1OC(N)=O)C2=O | 6.28 | 1.87 | 6.27 | 1.83 | 6.24 | 990 | 1.74 |  |  | 
CO[C@H]1/C=C\C=C(/C)C(=O)NC2=CC(=O)C(NCCn3cc(C(=O)O)nn3)=C(C[C@@H](C)C[C@H](OC)[C@H](O)[C@@H](C)/C=C(\C)[C@@H]1OC(N)=O)C2=O | 6.06 | 2.06 | 6.06 | 2.06 | 6.09 | 1790 | 2.21 |  |  | 
CO[C@H]1/C=C\C=C(/C)C(=O)NC2=CC(=O)C(NCc3cn([C@@H]4OC[C@@H](OC(C)=O)[C@H](OC(C)=O)[C@H]4OC(C)=O)nn3)=C(C[C@@H](C)C[C@H](OC)[C@H](O)[C@@H](C)/C=C(\C)[C@@H]1OC(N)=O)C2=O | 5.43 | 1.23 | 5.45 | 1.3 | 5.36 | 4590 | 1.05 |  |  | 
CO[C@H]1/C=C\C=C(/C)C(=O)NC2=CC(=O)C(NCCn3cc(-c4ccsc4)nn3)=C(C[C@@H](C)C[C@H](OC)[C@H](O)[C@@H](C)/C=C(\C)[C@@H]1OC(N)=O)C2=O | 6.03 | 2.2 | 6.00 | 2.09 | 6.03 | 2070 | 2.23 |  |  | 
CO[C@H]1/C=C\C=C(/C)C(=O)NC2=CC(=O)C(NCc3cn(CC4OCCO4)nn3)=C(C[C@@H](C)C[C@H](OC)[C@H](O)[C@@H](C)/C=C(\C)[C@@H]1OC(N)=O)C2=O | 5.76 | 1.77 | 5.75 | 1.73 | 5.75 | 3060 | 1.71 |  |  | 
COC(=O)C[C@H]1O[C@@H](n2cc(CNC3=C4C[C@@H](C)C[C@H](OC)[C@H](O)[C@@H](C)/C=C(\C)[C@H](OC(N)=O)[C@@H](OC)/C=C\C=C(/C)C(=O)NC(=CC3=O)C4=O)nn2)[C@H](O)[C@@H](O)[C@@H]1O | 5.83 | 1.49 | 5.88 | 1.65 | 5.85 | 2190 | 1.55 |  |  | 
CO[C@H]1/C=C\C=C(/C)C(=O)NC2=CC(=O)C(NCc3cn(Cc4ccc(C(F)(F)F)cc4)nn3)=C(C[C@@H](C)C[C@H](OC)[C@H](O)[C@@H](C)/C=C(\C)[C@@H]1OC(N)=O)C2=O | 6.04 | 1.36 | 6.10 | 1.55 | 6.10 | 1240 | 1.57 |  |  | 
CO[C@H]1/C=C\C=C(/C)C(=O)NC2=CC(=O)C(NCc3cn(Cc4ccc(C#N)cc4)nn3)=C(C[C@@H](C)C[C@H](OC)[C@H](O)[C@@H](C)/C=C(\C)[C@@H]1OC(N)=O)C2=O | 6.03 | 1.89 | 6.07 | 2.09 | 6.03 | 1780 | 1.91 |  |  | 
CO[C@H]1/C=C\C=C(/C)C(=O)NC2=CC(=O)C(NCc3cn(Cc4ccc(F)cc4)nn3)=C(C[C@@H](C)C[C@H](OC)[C@H](O)[C@@H](C)/C=C(\C)[C@@H]1OC(N)=O)C2=O | 5.82 | 1.11 | 5.80 | 1.07 | 5.81 | 1690 | 1.09 |  |  | 
CO[C@H]1/C=C\C=C(/C)C(=O)NC2=CC(=O)C(NCc3cn(CC=C(C)C)nn3)=C(C[C@@H](C)C[C@H](OC)[C@H](O)[C@@H](C)/C=C(\C)[C@@H]1OC(N)=O)C2=O | 5.67 | 1.47 | 5.56 | 1.15 | 5.69 | 3180 | 1.57 |  |  | 
CO[C@H]1/C=C\C=C(/C)C(=O)NC2=CC(=O)C(NCc3cn(Cc4ccsc4Br)nn3)=C(C[C@@H](C)C[C@H](OC)[C@H](O)[C@@H](C)/C=C(\C)[C@@H]1OC(N)=O)C2=O | 5.99 | 1.7 | 5.95 | 1.53 | 5.98 | 1730 | 1.65 |  |  | 
CO[C@H]1/C=C\C=C(/C)C(=O)NC2=CC(=O)C(NCc3cn([C@]4(C#N)O[C@H](COC(C)=O)[C@H](OC(C)=O)[C@H](OC(C)=O)[C@H]4OC(C)=O)nn3)=C(C[C@@H](C)C[C@H](OC)[C@H](O)[C@@H](C)/C=C(\C)[C@@H]1OC(N)=O)C2=O | 6.03 | 1.33 | 6.12 | 1.64 | 6.04 | 1250 | 1.37 |  |  | 
CO[C@H]1/C=C\C=C(/C)C(=O)NC2=CC(=O)C(NCc3c[nH]nn3)=C(C[C@@H](C)C[C@H](OC)[C@H](O)[C@@H](C)/C=C(\C)[C@@H]1OC(N)=O)C2=O | 6.16 | 2.57 | 6.16 | 2.57 | 6.14 | 1770 | 2.42 |  |  | 
CO[C@H]1/C=C\C=C(/C)C(=O)NC2=CC(=O)C(NCc3cn(CC4CCOCC4)nn3)=C(C[C@@H](C)C[C@H](OC)[C@H](O)[C@@H](C)/C=C(\C)[C@@H]1OC(N)=O)C2=O | 6.04 | 2 | 6.01 | 1.9 | 6.02 | 1840 | 1.92 |  |  | 
